Laboratory results: patent US20240010606A1, “FUMARATE DERIVATIVES AND THEIR MEDICAL USE” (Sitryx Therapeutics Limited, priority 2020, published 2024)

How the values were obtained:
hepatocytes [1] = assay: Hepatocyte stability assay, human; assay type: in vitro ADME; conditions: 10 μM compound
In short: (§1)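 Cryopreserved hepatocytes (viability >70%) at 0.5×10^6 cells/mL in Leibovitz buffer, preincubated 10 min at 37 °C, then compound at 10 μM (0.1% DMSO) in duplicate; buffer-only incubations as control. Samples at 0-60 min quenched in acetonitrile, analysed by LC-MS/MS; half-life and CLint (μL min^−1 10^−6 cells) from ln % remaining versus time.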

[2] = Hepatocyte stability assay, human; assay type: in vitro ADME; conditions: cryopreserved hepatocytes, 10 μM compound
In short: as §1

hepatocytes [3] = assay: Hepatocyte stability assay, mouse; assay type: in vitro ADME; conditions: 10 μM compound
In short: as §1

[4] = Hepatocyte stability assay, mouse; assay type: in vitro ADME; conditions: mouse, cryopreserved hepatocytes, 10 μM compound
In short: as §1

IL-1β = assay: THP-1 AlphaLISA IL-1β cytokine assay; assay type: cell-based; conditions: Homo sapiens, differentiated THP-1 cells
In short: (§2)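 THP-1 cells differentiated 72 h with PMA, pre-incubated 30 min with compounds, stimulated 24 h with LPS, then 1 h with nigericin, all at 37 °C. Supernatant cytokine measured by AlphaLISA; % inhibition normalised to ±LPS controls and IC50 taken from concentration-response curves.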

NRF2 = NRF2 activation assay (DiscoverX PathHunter NRF2 translocation kit, U2OS cells); assay type: cell-based
In short: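 PathHunter U2OS cells, grown 24 h at 37 °C/5% CO2, treated 6 h with compound; NRF2 nuclear translocation read as enzyme-fragment-complementation chemiluminescence. Activation normalised to dimethyl fumarate high and untreated low controls; EC50 from concentration-response curve.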

IL-6 = assay: THP-1 AlphaLISA IL-6 cytokine assay; assay type: cell-based; conditions: Homo sapiens
In short: as §2

[5] = Table 2, compounds of formula (II)
[6] = +GSH, Table 4, compounds of formula (II)
[7] = −GSH, Table 4, compounds of formula (II)
[8] = THP-1, differentiated THP-1 cells, Table 2, compounds of formula (II)

Structure (SMILES)	CIint (hepatocytes [1]; Table 6)	half-life at 10 μM ([2]; Table 6, read-out: T½) [min]	CIint (hepatocytes [3]; Table 6)	half-life at 10 μM ([4]; Table 6, read-out: T½) [min]	IC50 (IL-1β; [5]) [µM]	EC50 (NRF2; [6]) [µM]	NRF2 activation Emax (NRF2; [6])	EC50 (NRF2; [7]) [µM]	NRF2 activation Emax (NRF2; [7])	IC50 (IL-6; [8]) [µM]	further results
O=C(O)/C=C/C(=O)OC1(c2ccc(Br)cc2)CCC1 [Intermediate 12, (E)-4-(1-(4-bromophenyl)cyclobutoxy)-4-oxobut-2-enoic acid]	+++ (+++ means >15-30)	30 to 100	+++ (+++ means >15-30)	30 to 100	6 to 30	< 23	++ (++ means >87-114%)	< 23	++ (++ means >87-114%)	6 to 30	
O=C(O)CCOC(=O)/C=C/C(=O)OC1CCCCC1 [Example 4, (E)-3-((4-(cyclohexyloxy)-4-oxobut-2-enoyl)oxy)propanoic acid]											CIint (hepatocytes [1]; Table 5): +++ (+++ means 50-149); half-life at 10 μM ([2]; Table 5, read-out: T½): 5 to 29 min; CIint (hepatocytes [3]; Table 5): + (+ means >277); half-life at 10 μM ([4]; Table 5, read-out: T½): < 5 min; IC50 (IL-1β; LPS then Nigericin, Table 1): 2.5 to 6.1 µM; EC50 (NRF2; +GSH, Table 3): 6 to 20 µM; NRF2 activation Emax (NRF2; +GSH, normalised to dimethyl fumarate high control, Table 3): + (+ means >17.1-99); EC50 (NRF2; −GSH, Table 3): 2.1 to 6 µM; NRF2 activation Emax (NRF2; −GSH, normalised to dimethyl fumarate high control, Table 3): +++ (+++ means 150-199%); IC50 (IL-6; THP-1, differentiated THP-1 cells, LPS then Nigericin, Table 1): < 2.5 µM; IC50 (IL-6; THP-1, from repeated experiments, Table 1): 2.5 to 6.1 µM
CC(C)(OC(=O)/C=C/C(=O)O)c1ccc(C(F)(F)F)cc1 [Intermediate 21, (E)-4-oxo-4-((2-(4-(trifluoromethyl)phenyl)propan-2-yl)oxy)but-2-enoic acid]	++++ (++++ means 5-15)	> 100	++++ (++++ means 5-15)	> 100	6 to 30	< 23	++ (++ means >87-114%)	< 23	+++ (+++ means >114-150%)	> 100	EC50 (NRF2; +GSH, from repeated experiments, Table 4): 23 to 48.4 µM
O=C(O)/C=C/C(=O)OC1(c2cc(Cl)c(F)c(Cl)c2)CCC1 [Intermediate 25, (E)-4-(1-(3,5-dichloro-4-fluorophenyl)cyclobutoxy)-4-oxobut-2-enoic acid]	+++ (+++ means >15-30)	> 100	++ (++ means >30-110)	30 to 100	6 to 30	< 23	++ (++ means >87-114%)	< 23	++++ (++++ means >150%)	< 6	
O=C(O)/C=C/C(=O)OC1(c2ccc(C(F)(F)F)cc2)CC1 [Intermediate 38, (E)-4-oxo-4-(1-(4-(trifluoromethyl)phenyl)cyclopropoxy)but-2-enoic acid]	+++ (+++ means >15-30)	30 to 100	++ (++ means >30-110)	5 to 29	< 6	< 23	+ (+ means >50-<87%)	< 23	++++ (++++ means >150%)	6 to 30	
O=C(O)/C=C/C(=O)OC1(c2cccc(C(F)(F)F)c2)CCC1 [Intermediate 10, (E)-4-oxo-4-(1-(3-(trifluoromethyl)phenyl)cyclobutoxy)but-2-enoic acid]	++ (++ means >30-110)	5 to 29	++ (++ means >30-110)	30 to 100	6 to 30	< 23	+++ (+++ means >114-150%)	< 23	+++ (+++ means >114-150%)	6 to 30	
